{"source": "patent US20090156501A1", "about": "“IDENTIFICATION OF LIGANDS BY SELECTIVE AMPLIFICATION OF CELLS TRANSFECTED WITH RECEPTORS” (ACADIA PHARMACEUTICALS, INC., priority 1999, published 2009)", "assay_type_in_all_cases": "cell-based", "key": {"trk A receptor": {"biological_target": "T1, trk A receptor (Homo sapiens, UniProt P04629)", "T1 construct": "expressed in transfected cells; host or cells: NIH 3T3", "T1 sequence (P04629 33-790 isoform P04629-2 limits assumed)": "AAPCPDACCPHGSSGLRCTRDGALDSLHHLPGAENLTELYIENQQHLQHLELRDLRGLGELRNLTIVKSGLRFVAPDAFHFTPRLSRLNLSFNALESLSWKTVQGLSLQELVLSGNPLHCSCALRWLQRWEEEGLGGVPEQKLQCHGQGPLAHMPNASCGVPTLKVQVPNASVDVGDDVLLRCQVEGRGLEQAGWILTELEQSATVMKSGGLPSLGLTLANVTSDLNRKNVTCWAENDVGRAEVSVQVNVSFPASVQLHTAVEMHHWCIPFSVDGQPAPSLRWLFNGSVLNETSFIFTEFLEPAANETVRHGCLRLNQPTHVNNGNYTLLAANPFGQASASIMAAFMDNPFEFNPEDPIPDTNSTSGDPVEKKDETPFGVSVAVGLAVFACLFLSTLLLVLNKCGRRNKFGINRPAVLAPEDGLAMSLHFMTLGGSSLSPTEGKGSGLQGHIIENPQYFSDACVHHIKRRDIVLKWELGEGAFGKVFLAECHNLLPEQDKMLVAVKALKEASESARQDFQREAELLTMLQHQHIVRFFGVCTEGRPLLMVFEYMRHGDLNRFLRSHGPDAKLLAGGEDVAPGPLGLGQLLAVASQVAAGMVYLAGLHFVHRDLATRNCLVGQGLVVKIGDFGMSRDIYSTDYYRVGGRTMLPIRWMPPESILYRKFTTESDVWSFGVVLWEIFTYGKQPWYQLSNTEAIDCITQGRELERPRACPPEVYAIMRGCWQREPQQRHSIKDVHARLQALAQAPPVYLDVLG", "experiment": "Single Receptor Format amplification assay, trk A", "conditions": "7-9 doses in duplicate"}, "trk C receptor": {"biological_target": "T2, trk C receptor (Homo sapiens, UniProt Q16288)", "T2 construct": "expressed in transfected cells; host or cells: NIH 3T3", "experiment": "Single Receptor Format amplification assay, trk C", "text": "Also illustrated is the dose-response relationships of the related neutrotrophic factor NT3.\n(§1) Receptors belonging to several functional categories have successfully been assayed using the general protocol for the Single Receptor Format described above. […] A diversity of signal transduction classes are also illustrated: G-protein coupled receptors, tyrosine kinase linked receptors, G-proteins and oncogenes. In a few of these cases, focus assays have been used to assay ligand interaction with the illustrated receptors."}, "EP3 prostanoid receptor": {"biological_target": "T3, EP3 prostanoid receptor (Homo sapiens, UniProt P43115)", "T3 construct": "expressed in transfected cells; host or cells: NIH 3T3", "T3 sequence (P43115 1-390)": "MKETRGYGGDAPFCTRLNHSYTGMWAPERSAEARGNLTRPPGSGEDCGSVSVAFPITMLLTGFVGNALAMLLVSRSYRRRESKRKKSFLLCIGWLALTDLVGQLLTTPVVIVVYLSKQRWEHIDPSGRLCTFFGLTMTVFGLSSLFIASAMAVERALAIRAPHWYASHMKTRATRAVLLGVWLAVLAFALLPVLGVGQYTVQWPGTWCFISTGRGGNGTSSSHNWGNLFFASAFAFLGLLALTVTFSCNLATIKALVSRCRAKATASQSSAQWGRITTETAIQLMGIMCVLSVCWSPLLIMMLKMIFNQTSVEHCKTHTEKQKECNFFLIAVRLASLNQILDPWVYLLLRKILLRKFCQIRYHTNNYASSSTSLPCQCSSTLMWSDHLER", "experiment": "Single Receptor Format amplification assay, prostanoid EP3", "conditions": "7-9 doses in duplicate; read-out: Ligand EC50 nM, EP3", "text": "as §1"}, "m2 muscarinic receptor": {"biological_target": "T4, m2 muscarinic receptor (Homo sapiens, UniProt P08172)", "T4 construct": "expressed in transfected cells; host or cells: NIH 3T3", "T4 sequence (P08172 1-466)": "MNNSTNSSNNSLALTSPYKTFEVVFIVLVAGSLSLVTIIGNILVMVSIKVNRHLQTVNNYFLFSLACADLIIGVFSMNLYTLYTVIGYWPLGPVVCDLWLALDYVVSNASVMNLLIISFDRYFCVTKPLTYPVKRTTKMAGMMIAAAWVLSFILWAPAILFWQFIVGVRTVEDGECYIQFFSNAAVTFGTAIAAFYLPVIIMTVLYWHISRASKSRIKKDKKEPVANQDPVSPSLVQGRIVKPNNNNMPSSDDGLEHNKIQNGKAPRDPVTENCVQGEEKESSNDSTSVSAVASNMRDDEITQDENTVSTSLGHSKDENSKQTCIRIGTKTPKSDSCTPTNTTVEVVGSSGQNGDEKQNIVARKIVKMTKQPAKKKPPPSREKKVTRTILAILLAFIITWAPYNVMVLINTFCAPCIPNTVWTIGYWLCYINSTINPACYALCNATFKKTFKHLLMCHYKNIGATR", "experiment": "Single Receptor Format amplification assay, β-galactosidase marker, NIH 3T3 cells transfected with m2 and Gq-i5"}, "m5 muscarinic receptor": {"biological_target": "T5, m5 muscarinic receptor (Homo sapiens, UniProt P08912)", "T5 construct": "expressed in transfected cells; host or cells: NIH 3T3", "T5 sequence (P08912 1-532)": "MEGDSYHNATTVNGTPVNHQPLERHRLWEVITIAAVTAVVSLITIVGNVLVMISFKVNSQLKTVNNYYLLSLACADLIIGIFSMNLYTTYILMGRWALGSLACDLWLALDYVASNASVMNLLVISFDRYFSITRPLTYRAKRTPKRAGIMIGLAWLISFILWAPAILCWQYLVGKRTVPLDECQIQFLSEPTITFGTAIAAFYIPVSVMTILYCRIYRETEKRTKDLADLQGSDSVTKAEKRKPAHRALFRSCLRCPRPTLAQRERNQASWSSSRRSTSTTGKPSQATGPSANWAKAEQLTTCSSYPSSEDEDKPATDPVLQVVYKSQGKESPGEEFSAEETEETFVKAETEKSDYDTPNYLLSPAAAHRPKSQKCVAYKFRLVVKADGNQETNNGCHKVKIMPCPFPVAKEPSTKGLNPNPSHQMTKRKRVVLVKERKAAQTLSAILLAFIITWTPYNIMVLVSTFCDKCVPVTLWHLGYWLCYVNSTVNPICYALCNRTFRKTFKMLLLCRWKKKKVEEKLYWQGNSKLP", "experiment": "Single Receptor Format amplification assay, β-galactosidase marker, NIH 3T3 cells transfected with m5", "conditions": "for Muscarinic Agonists (% Max), m5: maximum response as % of carbachol response (carbachol 5 μM)"}, "m4 muscarinic receptor": {"biological_target": "T6, m4 muscarinic receptor (Homo sapiens, UniProt P08173)", "T6 construct": "expressed in transfected cells; host or cells: NIH 3T3", "T6 sequence (P08173 1-479)": "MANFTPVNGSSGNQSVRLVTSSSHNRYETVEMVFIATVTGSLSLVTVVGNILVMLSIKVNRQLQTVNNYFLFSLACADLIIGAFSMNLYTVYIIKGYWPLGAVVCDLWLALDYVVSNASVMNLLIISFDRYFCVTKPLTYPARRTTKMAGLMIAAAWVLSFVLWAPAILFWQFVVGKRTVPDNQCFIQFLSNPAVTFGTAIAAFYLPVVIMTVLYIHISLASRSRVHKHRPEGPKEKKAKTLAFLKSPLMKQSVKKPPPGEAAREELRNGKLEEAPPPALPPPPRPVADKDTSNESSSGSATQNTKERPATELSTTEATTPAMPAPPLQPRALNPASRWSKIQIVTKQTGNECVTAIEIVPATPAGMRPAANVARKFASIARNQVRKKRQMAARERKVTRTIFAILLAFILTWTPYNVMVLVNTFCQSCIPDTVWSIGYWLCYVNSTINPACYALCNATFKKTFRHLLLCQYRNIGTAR", "experiment": "Single Receptor Format amplification assay, β-galactosidase marker, NIH 3T3 cells transfected with m4 and chimeric G-protein", "conditions": "for EC50: cotransfected with Gqi5, mean ±SE of 2-4 experiments, read-out: Muscarinic Agonists EC50 [μM], m4"}, "m1 muscarinic receptor": {"biological_target": "T7, m1 muscarinic receptor (Homo sapiens, UniProt P11229)", "T7 construct": "expressed in transfected cells; host or cells: NIH 3T3", "T7 sequence (P11229 1-460)": "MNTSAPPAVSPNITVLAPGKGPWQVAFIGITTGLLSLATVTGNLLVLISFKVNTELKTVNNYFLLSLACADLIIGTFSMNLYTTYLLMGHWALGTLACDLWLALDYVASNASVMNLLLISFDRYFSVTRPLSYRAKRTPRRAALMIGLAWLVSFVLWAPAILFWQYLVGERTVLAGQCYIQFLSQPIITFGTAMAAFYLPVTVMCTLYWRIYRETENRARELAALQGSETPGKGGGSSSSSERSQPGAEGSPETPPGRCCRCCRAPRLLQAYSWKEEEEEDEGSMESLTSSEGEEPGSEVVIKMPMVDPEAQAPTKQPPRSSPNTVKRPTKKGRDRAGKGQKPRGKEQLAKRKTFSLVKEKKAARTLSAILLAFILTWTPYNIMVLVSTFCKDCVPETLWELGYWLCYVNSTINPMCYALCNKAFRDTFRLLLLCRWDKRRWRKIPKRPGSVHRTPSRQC", "experiment": "Single Receptor Format amplification assay, β-galactosidase marker, NIH 3T3 cells transfected with m1"}, "m3 muscarinic receptor": {"biological_target": "T8, m3 muscarinic receptor (Homo sapiens, UniProt P20309)", "T8 construct": "expressed in transfected cells; host or cells: NIH 3T3", "T8 sequence (P20309 whole entry)": "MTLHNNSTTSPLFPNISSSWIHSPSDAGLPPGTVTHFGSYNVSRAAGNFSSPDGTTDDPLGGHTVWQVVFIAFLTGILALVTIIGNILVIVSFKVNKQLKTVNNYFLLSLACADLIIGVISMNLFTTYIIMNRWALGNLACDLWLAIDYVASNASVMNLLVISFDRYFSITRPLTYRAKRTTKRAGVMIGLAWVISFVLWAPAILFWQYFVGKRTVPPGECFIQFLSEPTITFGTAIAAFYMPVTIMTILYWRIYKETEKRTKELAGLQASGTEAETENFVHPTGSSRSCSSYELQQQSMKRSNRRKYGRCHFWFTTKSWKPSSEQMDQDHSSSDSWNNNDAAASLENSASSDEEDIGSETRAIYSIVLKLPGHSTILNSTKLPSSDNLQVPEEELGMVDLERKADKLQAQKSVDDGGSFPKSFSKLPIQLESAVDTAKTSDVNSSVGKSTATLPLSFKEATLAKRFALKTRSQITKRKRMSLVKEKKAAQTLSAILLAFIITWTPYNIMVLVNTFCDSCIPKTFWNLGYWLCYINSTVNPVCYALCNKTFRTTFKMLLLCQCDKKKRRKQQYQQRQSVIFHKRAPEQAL", "experiment": "Single Receptor Format amplification assay, β-galactosidase marker, NIH 3T3 cells transfected with m3", "conditions": "for EC50: β-gal amplification, mean ±SE of 2-4 experiments, read-out: Muscarinic Agonists EC50 [μM], m3"}, "FP prostanoid receptor": {"biological_target": "T9, FP prostanoid receptor (Homo sapiens, UniProt P43088)", "T9 construct": "expressed in transfected cells; host or cells: NIH 3T3", "T9 sequence (P43088 whole entry)": "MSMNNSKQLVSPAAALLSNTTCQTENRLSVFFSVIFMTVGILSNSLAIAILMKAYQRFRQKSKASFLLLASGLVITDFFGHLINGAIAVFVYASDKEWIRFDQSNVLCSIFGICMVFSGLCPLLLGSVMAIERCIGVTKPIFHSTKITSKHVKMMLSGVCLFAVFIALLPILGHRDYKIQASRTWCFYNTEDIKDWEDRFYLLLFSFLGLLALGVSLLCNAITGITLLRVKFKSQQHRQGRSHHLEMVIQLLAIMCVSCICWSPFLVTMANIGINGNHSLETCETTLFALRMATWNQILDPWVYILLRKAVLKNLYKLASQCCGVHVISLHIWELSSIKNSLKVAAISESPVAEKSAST", "experiment": "Single Receptor Format amplification assay, prostanoid FP", "conditions": "7-9 doses in duplicate; read-out: Ligand EC50 nM, FP", "text": "as §1"}, "[1]": {"conditions": "maximum response as % of carbachol response (carbachol 10 μM), Gqi5"}}, "note": "Like-named read-outs stand apart in the source and are kept apart here."}
{"compound": "NT3: related neutrotrophic factor NT3", "values": [{"measurement": "Ligand EC50, trk A", "setting": "trk A receptor", "value": ">1", "unit": "µg/mL"}, {"measurement": "Ligand EC50, trk C", "setting": "trk C receptor; 7-9 doses in duplicate", "value": "0.0024 ± 0.0011", "unit": "µg/mL"}]}
{"compound": "O=C(O)CCCCCC[C@H]1C(=O)CC[C@@H]1/C=C/[C@@H](O)COc1ccccc1", "note": "[MB28767]", "values": [{"measurement": "EC50", "setting": "EP3 prostanoid receptor", "value": "270 ± 190", "unit": "nM"}]}
{"compound": "O=C1CCCN1CC#CCN1CCCC1", "note": "[oxotremorine]", "values": [{"measurement": "Muscarinic Agonists (% Max), m2", "setting": "m2 muscarinic receptor", "value": "(100 ± 5) %"}, {"measurement": "Muscarinic Agonists (% Max), m5", "setting": "m5 muscarinic receptor", "value": "(74 ± 2) %"}, {"measurement": "Muscarinic Agonists (% Max), m4", "setting": "m4 muscarinic receptor", "value": "(102 ± 3) %"}, {"measurement": "Muscarinic Agonists (% Max), m1", "setting": "m1 muscarinic receptor", "value": "(75 ± 10) %"}, {"measurement": "Muscarinic Agonists (% Max), m3", "setting": "m3 muscarinic receptor", "value": "(66 ± 5) %"}]}
{"compound": "C[N+](C)(C)CCOC(N)=O", "note": "[carbachol]", "values": [{"measurement": "Muscarinic Agonists (% Max), m2", "setting": "m2 muscarinic receptor; [1]", "value": "(100) %"}, {"measurement": "Muscarinic Agonists (% Max), m5", "setting": "m5 muscarinic receptor", "value": "(100) %"}, {"measurement": "Muscarinic Agonists (% Max), m4", "setting": "m4 muscarinic receptor; [1]", "value": "(100) %"}]}
{"compound": "O=C(O)CCC/C=C\\C[C@@H]1[C@@H](/C=C/[C@@H](O)COc2cccc(C(F)(F)F)c2)[C@H](O)C[C@@H]1O", "note": "(racemic) [Fluprostenol]", "values": [{"measurement": "EC50", "setting": "FP prostanoid receptor", "value": "2 ± 1", "unit": "nM"}]}
{"compound": "NGF: Nerve growth factor (NGF) is an agonist for the trk A receptor", "values": [{"measurement": "amplification response in cells transfected with trk C", "setting": "trk C receptor; data not shown", "value": "not able to induce amplification responses"}]}
{"compound": "C[N+](C)(C)CC#CCOC(=O)Nc1cccc(Cl)c1.[Cl-]", "note": "[McN A-434]", "values": [{"measurement": "EC50", "setting": "m2 muscarinic receptor; cotransfected with Gqi5, mean ±SE of 2-4 experiments, read-out: Muscarinic Agonists EC50 [μM], m2", "value": "1.5 ± 0.6", "unit": "µM"}, {"measurement": "Muscarinic Agonists (% Max), m2", "setting": "m2 muscarinic receptor; [1]", "value": "(108 ± 7) %"}, {"measurement": "Muscarinic Agonists (% Max), m5", "setting": "m5 muscarinic receptor", "value": "(57 ± 4) %"}, {"measurement": "EC50", "setting": "m5 muscarinic receptor; β-gal amplification, mean ±SE of 2-4 experiments, read-out: Muscarinic Agonists EC50 [μM], m5", "value": "1 ± 0.3", "unit": "µM"}, {"measurement": "EC50", "setting": "m4 muscarinic receptor", "value": "0.12 ± 0.02", "unit": "µM"}, {"measurement": "Muscarinic Agonists (% Max), m4", "setting": "m4 muscarinic receptor; [1]", "value": "(84 ± 3) %"}, {"measurement": "Muscarinic Agonists (% Max), m1", "setting": "m1 muscarinic receptor; maximum response as % of carbachol response (carbachol 200 μM)", "value": "(43 ± 2) %"}, {"measurement": "EC50", "setting": "m1 muscarinic receptor; β-gal amplification, mean ±SE of 2-4 experiments, read-out: Muscarinic Agonists EC50 [μM], m1", "value": "1.1 ± 0.2", "unit": "µM"}, {"measurement": "Muscarinic Agonists (% Max), m3", "setting": "m3 muscarinic receptor; maximum response as % of carbachol response (carbachol 100 μM)", "value": "(38 ± 2) %"}, {"measurement": "EC50", "setting": "m3 muscarinic receptor", "value": 2.2, "unit": "µM"}]}
{"compound": "C[C@@H]1O[C@H](C[N+](C)(C)C)C[C@H]1O", "note": "[muscarine]", "values": [{"measurement": "Muscarinic Agonists (% Max), m2", "setting": "m2 muscarinic receptor", "value": "(76 ± 1) %"}, {"measurement": "EC50", "setting": "m5 muscarinic receptor", "value": "0.39 ± 0.18", "unit": "µM"}, {"measurement": "Muscarinic Agonists (% Max), m5", "setting": "m5 muscarinic receptor", "value": "(86 ± 0) %"}, {"measurement": "Muscarinic Agonists (% Max), m4", "setting": "m4 muscarinic receptor", "value": "(69 ± 2) %"}, {"measurement": "EC50", "setting": "m4 muscarinic receptor", "value": "0.32 ± 0.15", "unit": "µM"}, {"measurement": "Muscarinic Agonists (% Max), m1", "setting": "m1 muscarinic receptor", "value": "(84 ± 4) %"}, {"measurement": "Muscarinic Agonists (% Max), m3", "setting": "m3 muscarinic receptor", "value": "(84 ± 6) %"}, {"measurement": "EC50", "setting": "m3 muscarinic receptor", "value": "0.56 ± 0.25", "unit": "µM"}]}
